Laboratory results reported in the supplement of paper PMC12137928.
Counter-ions that a name gives are not always drawn.

Tested on: HCT116
Settings: 72 h
Method in brief: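 Each well of the 1536-well plates received 250 HCT116 cells, which attached over 5 h. Luminescence was measured with CellTiter-Glo, scaled with vehicle as 0% and positive control as -100%, and pattern-corrected. A four-parameter Hill fit yielded IC50 and maximal efficacy.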

IC50 cell viability (ICRF193 0 nM) | IC50 cell viability (ICRF193 200 nM) | Compound
> 45.8 µM | > 45.8 µM | O=C(O)[C@@H](O)[C@H](O)[C@H](O)[C@@H](O)C(=O)O [Mucic acid]
> 45.8 µM | > 45.8 µM | CCCCCN(C)CCC(O)(P(=O)(O)O)P(=O)(O)O [Ibandronate sodium hydrate]
> 45.8 µM | > 45.8 µM | OCCOCCN1CCN(C2=Nc3ccccc3Sc3ccccc32)CC1 [Quetiapine]
> 45.8 µM | > 45.8 µM | N=C1CCCN1Cc1[nH]c(=O)[nH]c(=O)c1Cl [Tipiracil]
> 45.8 µM | > 45.8 µM | C[n+]1ccccc1/C=N/O [Pralidoxime chloride]
> 45.8 µM | > 45.8 µM | O=C(c1cc(Cc2n[nH]c(=O)c3ccccc23)ccc1F)N1CCN(C(=O)C2CC2)CC1 [Olaparib]
> 45.8 µM | > 45.8 µM | O=C(O)c1cc(O)c(O)c(O)c1 [Gallic acid]
> 45.8 µM | > 45.8 µM | Cc1cc(C(=O)NNCc2ccccc2)no1 [Isocarboxazid]
> 45.8 µM | > 45.8 µM | Cc1cccc(C)c1NC(=O)C(C)N (configuration not stated) [Tocainide hydrochloride]
> 45.8 µM | > 45.8 µM | CC(CCc1ccc(O)cc1)NCC(O)c1ccc(O)cc1 (configuration not stated) [RACTOPAMINE HYDROCHLORIDE]
> 45.8 µM | > 45.8 µM | COc1ccc2c(O[C@@H]3C[C@H]4C(=O)N[C@]5(C(=O)NS(=O)(=O)C6CC6)C[C@H]5/C=C\CCCCN(C)C(=O)[C@@H]4C3)cc(-c3nc(C(C)C)cs3)nc2c1C [Simeprevir]
> 45.8 µM | > 45.8 µM | O=C1OCCN1/N=C/c1ccc([N+](=O)[O-])o1 [Furazolidone]
> 45.8 µM | > 45.8 µM | Nc1ccc(C(=O)Oc2ccccc2)c(O)c1 [Phenyl 4-aminosalicylate]
> 45.8 µM | > 45.8 µM | C[C@H](CCC(=O)O)[C@H]1CC[C@H]2[C@@H]3CC[C@@H]4C[C@H](O)CC[C@]4(C)[C@H]3C[C@H](O)[C@]12C [Sodium deoxycholate monohydrate]
> 45.8 µM | > 45.8 µM | CC(C)(C)NCC(O)c1ccc(O)c(CO)n1 (configuration not stated) [Pirbuterol hydrochloride]
> 45.8 µM | > 45.8 µM | CC1CCc2c(N3CCC(O)CC3)c(F)cc3c(=O)c(C(=O)O)cn1c23 (configuration not stated) [Nadifloxacin]
> 45.8 µM | > 45.8 µM | CCC[C@@]1(CCc2ccccc2)CC(O)=C([C@H](CC)c2cccc(NS(=O)(=O)c3ccc(C(F)(F)F)cn3)c2)C(=O)O1 [Tipranavir]
> 45.8 µM | > 45.8 µM | CC(C)OC(=O)[C@H](C)N[P@@](=O)(OC[C@H]1O[C@@H](n2ccc(=O)[nH]c2=O)[C@](C)(F)[C@@H]1O)Oc1ccccc1 [PSI-7976]
> 45.8 µM | > 45.8 µM | COc1ccc2c(c1OC)C(=O)O[C@@H]2[C@H]1c2c(cc3c(c2OC)OCO3)CCN1C [Noscapine]
> 45.8 µM | > 45.8 µM | CCOC(=O)c1ccc(OC(=O)CCCCCNC(=N)N)cc1 [Gabexate mesilate]
> 45.8 µM | > 45.8 µM | CCCCC(O)c1ccccc1 (configuration not stated) [Fenipentol]
> 45.8 µM | > 45.8 µM | CC(N/C(=N\C#N)Nc1ccncc1)C(C)(C)C (configuration not stated) [PINACIDIL]
> 45.8 µM | > 45.8 µM | N[C@@H](CSSC[C@H](N)C(=O)O)C(=O)O [L-Cystine]
> 45.8 µM | > 45.8 µM | Cc1cc(NS(=O)(=O)c2ccc(N)cc2)no1 [Sulfamethoxazole]
> 45.8 µM | > 45.8 µM | C[C@]12C=CC(=O)C=C1CC[C@@H]1[C@@H]2[C@@H](O)C[C@@]2(C)[C@H]1CC[C@]2(O)C(=O)CO [Prednisolone]
> 45.8 µM | > 45.8 µM | O=C(O)c1cc(=O)[nH]c(=O)[nH]1 [Orotic acid]
> 45.8 µM | > 45.8 µM | NC(=O)c1ccccc1O [Salicylamide]
> 45.8 µM | > 45.8 µM | Cc1cccc(N(C)C(=S)Oc2ccc3c(c2)C2CCC3C2)c1 (configuration not stated) [Tolciclate]
> 45.8 µM | > 45.8 µM | CC(=O)Oc1cc(C(C)C)c(OCCN(C)C)cc1C [Moxisylyte hydrochloride]

The remaining lines, values behind:

Compound | IC50 cell viability (ICRF193 0 nM) | IC50 cell viability (ICRF193 200 nM)
NC(CO)C(=O)NNCc1ccc(O)c(O)c1O (configuration not stated) [Benserazide] | > 45.8 µM | > 45.8 µM
NS(=O)(=O)c1cc2c(cc1Cl)CN(C1CCCCC1)C2=O [Chlorexolone] | > 45.8 µM | > 45.8 µM
Cc1cc(Nc2ccccc2C(=O)O)ccc1Cl [2-[(4-Chloro-3-methylphenyl)amino]benzoic acid] | > 45.8 µM | > 45.8 µM
CC[C@H]1[C@@H]2C[C@H]3[C@@H]4N(C)c5ccccc5[C@]45C[C@@H]([C@@H]2[C@H]5O)N3[C@@H]1O [Ajmaline] | > 45.8 µM | > 45.8 µM
Nc1ccc(S(=O)(=O)c2ccc(N)cc2)cc1 [Dapsone] | > 45.8 µM | > 45.8 µM
CCOCCOC(=O)/C=C/c1ccc(OC)cc1 [Cinoxate] | > 45.8 µM | > 45.8 µM
CO/N=C(\C(=O)N[C@@H]1C(=O)N2C(C(=O)[O-])=C(C[n+]3ccc(N)n3CCO)CS[C@H]12)c1csc(N)n1 [Cefoselis (sulfate)] | > 45.8 µM | > 45.8 µM
C/C(=C(\CCOC(=O)c1ccccc1)SS/C(CCOC(=O)c1ccccc1)=C(/C)N(C=O)Cc1cnc(C)nc1N)N(C=O)Cc1cnc(C)nc1N [Bisbentiamine] | > 45.8 µM | > 45.8 µM
N[C@H](CCC(=O)O)C(=O)O [D-Glutamic acid] | > 45.8 µM | > 45.8 µM
CO[C@@]1(NC(=O)CSCC#N)C(=O)N2C(C(=O)O)=C(CSc3nnnn3C)CS[C@@H]21 [Cefmetazole sodium] | > 45.8 µM | > 45.8 µM
CN/C(=N\CCSCc1nc[nH]c1C)NC#N [Cimetidine] | > 45.8 µM | > 45.8 µM
CC1(C)S[C@@H]2[C@H](N)C(=O)N2[C@H]1C(=O)O [6-Aminopenicillanic acid] | > 45.8 µM | > 45.8 µM
CN[C@H]1C(=O)N[C@@H]2Cc3ccc(cc3)Oc3cc4cc(c3O[C@@H]3O[C@H](C(=O)O)[C@@H](O)[C@H](O)[C@H]3NC(=O)CCCCCCCCC(C)C)Oc3ccc(cc3Cl)[C@@H](O)[C@@H]3NC(=O)[C@H](NC(=O)[C@@H]4NC(=O)[C@@H](NC2=O)c2cc(cc(O)c2Cl)Oc2cc1ccc2O)c1ccc(O)c(c1)-c1c(O[C@H]2O[C@H](CO)[C@@H](O)[C@H](O)[C@@H]2O)cc(O)cc1[C@@H](C(=O)NCCCN(C)C)NC3=O [Dalbavancin] | > 45.8 µM | > 45.8 µM
C=CCc1ccc(O)c(OC)c1 [Eugenol] | > 45.8 µM | > 45.8 µM
CCCCC[C@H](O)C=C[C@@H]1[C@@H](C/C=C/CCCC(=O)O)[C@H](O)C[C@H]1O [5-trans Prostaglandin F2?] | > 45.8 µM | > 45.8 µM
Brc1c(NC2=NCCN2)ccc2nccnc12 [Brimonidine] | > 45.8 µM | > 45.8 µM

Compound | IC50 cell viability (ICRF193 0 nM) | IC50 cell viability (ICRF193 200 nM)
CN1C[C@H](C(=O)N[C@]2(C)O[C@@]3(O)[C@@H]4CCCN4C(=O)[C@H](Cc4ccccc4)N3C2=O)C[C@@H]2c3cccc4[nH]cc(c34)C[C@H]21 [Dihydroergotamine] | > 45.8 µM | > 45.8 µM
CCC(C)(Oc1ccc(C2(c3ccc(OC(C)(CC)C(=O)O)cc3)CCCCC2)cc1)C(=O)O (configuration not stated) [Clinofibrate] | > 45.8 µM | > 45.8 µM
CC#C[C@]1(O)CC[C@H]2[C@@H]3C[C@H](C)C4=CC(=O)CC[C@]4(C)[C@H]3CC[C@@]21C [Dimethisteron] | > 45.8 µM | > 45.8 µM
CN(C)C(=O)Oc1cc(OC(=O)N(C)C)cc(C(O)CNC(C)(C)C)c1 (configuration not stated) [Bambuterol hydrochloride] | > 45.8 µM | > 45.8 µM
CCOC(=O)/C=C(C)/C=C/C[C@@H](C)CCCC(C)C [S-Hydroprene] | > 45.8 µM | > 45.8 µM
C=C(CC)C(=O)c1ccc(OCC(=O)O)c(Cl)c1Cl [Ethacrynic acid] | > 45.8 µM | > 45.8 µM
O=c1[nH]c(=O)n([C@@H]2O[C@H](CO)[C@@H](O)[C@@H]2O)cc1/C=C/Br [Bravavir] | > 45.8 µM | > 45.8 µM
CN1N=C2CCN(C(=O)[C@@H](COCc3ccccc3)NC(=O)C(C)(C)N)C[C@@]2(Cc2ccccc2)C1=O [Capromorelin] | > 45.8 µM | > 45.8 µM
CCN(CC)C(=O)/C(C#N)=C/c1cc(O)c(O)c([N+](=O)[O-])c1 [Entacapone] | > 45.8 µM | > 45.8 µM
NS(=O)(=O)c1cc2c(cc1Cl)N=CNS2(=O)=O [Chlorothiazide] | > 45.8 µM | > 45.8 µM
CCCCCC[C@@H](CCC)C(=O)O [(2R)-2-Propyloctanoic acid] | > 45.8 µM | > 45.8 µM
O=C/C=C/c1ccccc1 [(2E)-3-Phenylprop-2-enal] | > 45.8 µM | > 45.8 µM
CCc1cccc(CC)c1NC(=O)CN(CC(=O)O)CC(=O)O [Etifenin] | > 45.8 µM | > 45.8 µM
CC[C@@H](CO)NC(=O)[C@@H]1C=C2c3cccc4c3c(cn4C)C[C@H]2N(C)C1 [Methysergide] | > 45.8 µM | > 45.8 µM
CCC1(c2ccc(N)cc2)CCC(=O)NC1=O (configuration not stated) [Aminoglutethimide] | > 45.8 µM | > 45.8 µM
CC(C)(C)NC(=O)N[C@H](C(=O)N1C[C@H]2[C@@H]([C@H]1C(=O)NC(CC1CCC1)C(=O)C(N)=O)C2(C)C)C(C)(C)C (some centres not stated) [Boceprevir] | > 45.8 µM | > 45.8 µM
